Target: PIP5K1B (Homo sapiens, UniProt O14986)
Test: cell-free kinase assay (Thermo Fisher SelectScreen, ADP detection), 10-point dose response; […] inhibition at […]
Format: biochemical

Sequence of PIP5K1B (O14986 whole entry): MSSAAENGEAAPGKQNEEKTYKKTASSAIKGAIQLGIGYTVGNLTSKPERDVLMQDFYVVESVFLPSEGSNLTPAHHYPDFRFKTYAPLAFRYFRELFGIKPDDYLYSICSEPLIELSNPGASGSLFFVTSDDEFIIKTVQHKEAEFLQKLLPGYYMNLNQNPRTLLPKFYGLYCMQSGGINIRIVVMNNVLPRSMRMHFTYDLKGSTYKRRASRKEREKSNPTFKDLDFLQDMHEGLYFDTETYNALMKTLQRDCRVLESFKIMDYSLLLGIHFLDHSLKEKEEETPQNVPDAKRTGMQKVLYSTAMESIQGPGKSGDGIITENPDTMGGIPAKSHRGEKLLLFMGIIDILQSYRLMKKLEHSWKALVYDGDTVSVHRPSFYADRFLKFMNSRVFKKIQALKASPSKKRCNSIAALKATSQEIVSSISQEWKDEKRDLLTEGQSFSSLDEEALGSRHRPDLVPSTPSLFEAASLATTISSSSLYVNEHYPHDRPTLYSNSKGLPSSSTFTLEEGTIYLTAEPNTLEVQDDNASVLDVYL

Fc1ccc(Nc2nc(Nc3ccc(-c4nc5ccccc5[nH]4)cc3)nc(N3CCOCC3)n2)cc1 [15g, N2-[4-(1H-benzimidazol-2-yl)phenyl]-N4-(4-fluorophenyl)-6-(4-morpholinyl)-1,3,5-triazine-2,4-diamine]
IC50: 281 nM
